Laboratory results: ChEMBL document CHEMBL4321836, “Discovery of BAY-298 and BAY-899: Tetrahydro-1,6-naphthyridine-Based, Potent, and Selective Antagonists of the Luteinizing Hormone Receptor Which Reduce Sex Hormone Levels in Vivo” (J Med Chem, 2019)

What was measured:
[1] = target: 5-hydroxytryptamine receptor 2B (Homo sapiens) (UniProt P41595); test: Antagonist activity at human 5-HT2B receptor expressed in CHO-K1 cells at 10 uM after 30 mins by HTRF assay relative to control; type: cell-based; parameters: scale not given: the % may be the effect or the level left
[2] = target: Substance-P receptor (Homo sapiens) (UniProt P25103); test: Agonist activity at human NK1 receptor expressed in U373 MG cells at 10 uM by fluorimetric method relative to control; type: cell-based; conditions: U-373MG ATCC
[3] = target: Beta-1 adrenergic receptor (Homo sapiens) (UniProt P08588); test: Agonist activity at human beta1 adrenergic receptor expressed in HEK293 cells at 10 uM after 30 mins HTRF assay relative to control; type: cell-based
[4] = Protein binding in human plasma assessed as unbound fraction; type: ADME, cell-free
[5] = target: T1, Prostaglandin E2 receptor EP3 subtype (Homo sapiens) (UniProt P43115); test: Antagonist activity at human EP3 receptor expressed in […] cells at 10 uM by spectrophotometric method relative to control; type: cell-based; parameters: scale not given: the % may be the effect or the level left
T1 sequence (whole entry): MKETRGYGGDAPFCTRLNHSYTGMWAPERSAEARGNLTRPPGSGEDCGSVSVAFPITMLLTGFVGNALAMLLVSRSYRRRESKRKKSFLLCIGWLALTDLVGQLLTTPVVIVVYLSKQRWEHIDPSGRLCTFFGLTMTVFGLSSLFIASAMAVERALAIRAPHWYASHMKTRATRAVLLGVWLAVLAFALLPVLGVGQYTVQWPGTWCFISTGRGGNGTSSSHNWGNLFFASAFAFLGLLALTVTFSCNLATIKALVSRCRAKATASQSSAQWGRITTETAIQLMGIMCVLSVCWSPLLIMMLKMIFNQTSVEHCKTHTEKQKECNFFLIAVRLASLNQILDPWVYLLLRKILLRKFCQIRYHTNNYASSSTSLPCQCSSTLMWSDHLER

[6] = target: Somatostatin receptor type 4 (Homo sapiens) (UniProt P31391); test: Agonist activity at human sst4 expressed in CHO-K1 cells at 10 uM after 10 mins by HTRF assay relative to control; type: cell-based
[7] = Toxicity in female rat assessed as reduction in body weight; conditions: in vivo
Cytochrome P450 1A2 = Cytochrome P450 1A2 (Homo sapiens, UniProt P05177); test: Inhibition of CYP1A2 in human liver microsomes using phenacetin as substrate by LC-MS/MS analysis; type: ADME
Homo sapiens = species on record: Homo sapiens; test: Selectivity ratio of IC50 for human thyroid stimulating hormone receptor expressed in rat HTC133 cells to human luteinizing hormone receptor; type: cell-based
[8] = target: Muscarinic acetylcholine receptor M4 (Homo sapiens) (UniProt P08173); test: Agonist activity at human muscarinic M4 receptor expressed in CHO-K1 cells at 10 uM after 10 mins by HTRF method relative to control; type: cell-based
[9] = target: Histamine H2 receptor (Homo sapiens) (UniProt P25021); test: Agonist activity at human histamine H2 receptor expressed in CHO-K1 cells at 10 uM after 30 mins by HTRF assay relative to control; type: cell-based
[10] = Apparent permeability across basolateral to apical side in human Caco2 cells at 2 uM after 2 hrs by LC-MS/MS analysis; type: ADME, cell-based; conditions: Caco-2
[11] = Dose normalized AUC in Wistar rat at 2 mg/kg, po after 8 to 72 hrs by LC-MS/MS analysis; type: ADME, organism-based; conditions: in vivo
[12] = Maximum oral bioavailability in human liver microsomes based well stirred liver model at 1 uM measured after 2 to 60 mins in presence of glucose-6-phosphate by LC-MS/MS analysis; type: ADME, Microsome; conditions: read-out: Fmax
[13] = target: Kappa-type opioid receptor (Homo sapiens) (UniProt P41145); test: Agonist activity at human kappa opioid receptor at 10 uM by Spectrophotometric method relative to control
[14] = target: P2Y purinoceptor 2 (Homo sapiens) (UniProt P41231); test: Agonist activity at human P2Y2 receptor expressed in human 1321N1 cells at 10 uM by fluorimetric method relative to control; type: cell-based
[15] = target: T2, Adenosine receptor A2b (Homo sapiens) (UniProt P29275); test: Antagonist activity at human A2B receptor expressed in HEK293 cells at 10 uM after 10 mins by HTRF assay relative to control; type: cell-based; parameters: scale not given: the % may be the effect or the level left
T2 sequence (whole entry): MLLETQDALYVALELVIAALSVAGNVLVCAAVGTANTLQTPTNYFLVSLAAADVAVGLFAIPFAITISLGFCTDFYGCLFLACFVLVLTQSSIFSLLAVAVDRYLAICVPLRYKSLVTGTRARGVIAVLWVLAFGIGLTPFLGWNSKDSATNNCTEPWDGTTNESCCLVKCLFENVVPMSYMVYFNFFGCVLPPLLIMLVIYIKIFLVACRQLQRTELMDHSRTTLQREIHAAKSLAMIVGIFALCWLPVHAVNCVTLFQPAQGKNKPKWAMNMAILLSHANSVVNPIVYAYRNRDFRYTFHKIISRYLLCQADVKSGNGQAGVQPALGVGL

[16] = target: T3, Muscarinic acetylcholine receptor M1 (Homo sapiens) (UniProt P11229); test: Antagonist activity at human muscarinic M1 receptor expressed in CHO-K1 cells at 10 uM by fluorimetric method relative to control; type: cell-based; parameters: scale not given: the % may be the effect or the level left
T3 sequence (whole entry): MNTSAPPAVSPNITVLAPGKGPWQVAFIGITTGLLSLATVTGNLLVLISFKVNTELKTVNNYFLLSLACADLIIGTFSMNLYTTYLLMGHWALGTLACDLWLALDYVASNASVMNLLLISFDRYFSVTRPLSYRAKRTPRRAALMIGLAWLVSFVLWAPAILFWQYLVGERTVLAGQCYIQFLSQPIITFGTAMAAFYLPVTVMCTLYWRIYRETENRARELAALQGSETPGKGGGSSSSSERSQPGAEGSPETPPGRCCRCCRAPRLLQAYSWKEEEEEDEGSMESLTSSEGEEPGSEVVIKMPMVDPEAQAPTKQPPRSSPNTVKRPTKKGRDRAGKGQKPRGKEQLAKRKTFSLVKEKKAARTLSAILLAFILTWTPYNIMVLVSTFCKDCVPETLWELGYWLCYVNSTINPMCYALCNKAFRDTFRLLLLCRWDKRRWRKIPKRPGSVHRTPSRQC

[17] = Toxicity in female rat assessed as effect on animal activity; conditions: in vivo
[18] = Plasma concentration in female rat at 12.5 mg/kg, po administered once daily for 8 days and measured on day 8; type: ADME, organism-based
[19] = target: Mu-type opioid receptor (Homo sapiens) (UniProt P35372); test: Agonist activity at human mu opioid receptor expressed in CHO-K1 cells at 10 uM after 10 mins by HTRF assay relative to control; type: cell-based
Cytochrome P450 2D6 = Cytochrome P450 2D6 (Homo sapiens, UniProt P10635); test: Inhibition of CYP2D6 in human liver microsomes using dextromethorphan as substrate by LC-MS/MS analysis; type: ADME
Chain of Cytochrome P450 2D6 (P10635 whole entry): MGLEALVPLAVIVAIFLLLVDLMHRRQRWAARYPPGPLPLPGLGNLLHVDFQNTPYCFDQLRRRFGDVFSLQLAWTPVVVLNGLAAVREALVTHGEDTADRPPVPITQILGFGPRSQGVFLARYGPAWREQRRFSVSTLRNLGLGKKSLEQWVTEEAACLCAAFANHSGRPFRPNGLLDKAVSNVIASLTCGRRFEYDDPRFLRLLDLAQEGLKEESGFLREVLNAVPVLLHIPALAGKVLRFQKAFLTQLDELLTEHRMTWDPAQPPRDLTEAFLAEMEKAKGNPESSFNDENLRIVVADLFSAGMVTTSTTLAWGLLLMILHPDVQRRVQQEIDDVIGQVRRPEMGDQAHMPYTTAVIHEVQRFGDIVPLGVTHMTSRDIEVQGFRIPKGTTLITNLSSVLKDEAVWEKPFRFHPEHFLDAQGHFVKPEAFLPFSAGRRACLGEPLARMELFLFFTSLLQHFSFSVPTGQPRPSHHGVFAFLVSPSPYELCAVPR

Chain of Substance-P receptor (Homo sapiens) (P25103 whole entry): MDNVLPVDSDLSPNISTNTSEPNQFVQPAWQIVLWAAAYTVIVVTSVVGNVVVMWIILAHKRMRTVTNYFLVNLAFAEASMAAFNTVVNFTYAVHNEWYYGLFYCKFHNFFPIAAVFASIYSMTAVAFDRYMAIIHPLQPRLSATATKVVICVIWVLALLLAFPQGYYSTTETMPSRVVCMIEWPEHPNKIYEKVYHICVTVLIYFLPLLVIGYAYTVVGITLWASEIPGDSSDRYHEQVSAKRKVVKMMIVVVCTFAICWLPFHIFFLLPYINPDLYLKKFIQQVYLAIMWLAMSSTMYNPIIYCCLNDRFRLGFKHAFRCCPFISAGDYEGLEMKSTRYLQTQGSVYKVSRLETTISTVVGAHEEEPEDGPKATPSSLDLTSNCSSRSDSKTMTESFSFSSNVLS
Chain of Muscarinic acetylcholine receptor M4 (Homo sapiens) (P08173 whole entry): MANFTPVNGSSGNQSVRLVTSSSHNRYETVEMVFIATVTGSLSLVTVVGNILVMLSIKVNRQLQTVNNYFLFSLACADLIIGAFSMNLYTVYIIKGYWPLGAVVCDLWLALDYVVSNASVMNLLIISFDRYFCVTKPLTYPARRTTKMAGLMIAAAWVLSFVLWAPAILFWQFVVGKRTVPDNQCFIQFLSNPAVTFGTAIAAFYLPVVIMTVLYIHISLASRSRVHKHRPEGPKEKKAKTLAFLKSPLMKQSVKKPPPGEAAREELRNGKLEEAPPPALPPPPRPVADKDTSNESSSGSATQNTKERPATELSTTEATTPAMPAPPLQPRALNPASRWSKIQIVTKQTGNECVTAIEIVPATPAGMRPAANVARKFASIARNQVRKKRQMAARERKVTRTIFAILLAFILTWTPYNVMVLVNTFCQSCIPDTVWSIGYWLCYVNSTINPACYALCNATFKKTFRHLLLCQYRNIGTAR
Chain of Cytochrome P450 1A2 (P05177 whole entry): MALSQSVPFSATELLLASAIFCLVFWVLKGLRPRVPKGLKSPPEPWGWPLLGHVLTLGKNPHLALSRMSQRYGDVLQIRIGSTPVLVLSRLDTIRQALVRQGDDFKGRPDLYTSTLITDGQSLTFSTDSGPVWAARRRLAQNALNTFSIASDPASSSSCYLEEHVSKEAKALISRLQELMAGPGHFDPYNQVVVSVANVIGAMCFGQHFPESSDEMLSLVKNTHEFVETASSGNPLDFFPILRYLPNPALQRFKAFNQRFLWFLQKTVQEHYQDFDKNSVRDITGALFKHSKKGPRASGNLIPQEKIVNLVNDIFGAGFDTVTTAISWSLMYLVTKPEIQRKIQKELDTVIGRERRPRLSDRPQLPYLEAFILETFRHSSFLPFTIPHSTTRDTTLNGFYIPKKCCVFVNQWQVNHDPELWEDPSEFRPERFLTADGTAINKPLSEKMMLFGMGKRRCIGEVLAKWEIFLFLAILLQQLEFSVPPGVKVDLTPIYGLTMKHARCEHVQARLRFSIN
Chain of P2Y purinoceptor 2 (Homo sapiens) (P41231 whole entry): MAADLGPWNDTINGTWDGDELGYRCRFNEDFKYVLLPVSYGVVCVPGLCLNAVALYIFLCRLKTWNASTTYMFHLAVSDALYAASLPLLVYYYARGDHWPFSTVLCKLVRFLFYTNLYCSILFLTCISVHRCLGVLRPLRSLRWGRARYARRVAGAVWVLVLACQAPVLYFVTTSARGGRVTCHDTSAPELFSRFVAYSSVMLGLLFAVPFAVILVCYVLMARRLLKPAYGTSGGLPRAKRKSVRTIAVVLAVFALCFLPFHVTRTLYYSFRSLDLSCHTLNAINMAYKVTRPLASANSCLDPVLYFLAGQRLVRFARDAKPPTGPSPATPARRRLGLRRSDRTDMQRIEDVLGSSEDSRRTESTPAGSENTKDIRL
Chain of Histamine H2 receptor (Homo sapiens) (P25021 whole entry): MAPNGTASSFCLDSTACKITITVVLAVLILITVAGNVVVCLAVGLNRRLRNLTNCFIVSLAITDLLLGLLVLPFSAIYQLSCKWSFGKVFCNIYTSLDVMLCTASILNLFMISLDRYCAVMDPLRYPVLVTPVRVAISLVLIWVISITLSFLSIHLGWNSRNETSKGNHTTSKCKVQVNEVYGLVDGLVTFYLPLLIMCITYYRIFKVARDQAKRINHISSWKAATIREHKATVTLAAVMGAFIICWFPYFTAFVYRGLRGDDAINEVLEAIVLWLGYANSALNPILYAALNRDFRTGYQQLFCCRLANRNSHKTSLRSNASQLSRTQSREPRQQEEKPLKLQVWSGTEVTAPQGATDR
Chain of Kappa-type opioid receptor (Homo sapiens) (P41145 whole entry): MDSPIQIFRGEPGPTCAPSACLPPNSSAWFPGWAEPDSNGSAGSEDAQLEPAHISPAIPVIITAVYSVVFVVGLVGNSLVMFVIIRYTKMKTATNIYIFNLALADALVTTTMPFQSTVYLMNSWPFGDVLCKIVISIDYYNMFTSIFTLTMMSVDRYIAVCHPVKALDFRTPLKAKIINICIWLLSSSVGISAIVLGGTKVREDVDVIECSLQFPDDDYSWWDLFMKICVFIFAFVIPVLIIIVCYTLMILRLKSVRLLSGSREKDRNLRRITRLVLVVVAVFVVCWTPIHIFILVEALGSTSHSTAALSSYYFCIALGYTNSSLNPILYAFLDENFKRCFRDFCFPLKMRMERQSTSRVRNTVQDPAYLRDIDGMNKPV
Chain of 5-hydroxytryptamine receptor 2B (Homo sapiens) (P41595 whole entry): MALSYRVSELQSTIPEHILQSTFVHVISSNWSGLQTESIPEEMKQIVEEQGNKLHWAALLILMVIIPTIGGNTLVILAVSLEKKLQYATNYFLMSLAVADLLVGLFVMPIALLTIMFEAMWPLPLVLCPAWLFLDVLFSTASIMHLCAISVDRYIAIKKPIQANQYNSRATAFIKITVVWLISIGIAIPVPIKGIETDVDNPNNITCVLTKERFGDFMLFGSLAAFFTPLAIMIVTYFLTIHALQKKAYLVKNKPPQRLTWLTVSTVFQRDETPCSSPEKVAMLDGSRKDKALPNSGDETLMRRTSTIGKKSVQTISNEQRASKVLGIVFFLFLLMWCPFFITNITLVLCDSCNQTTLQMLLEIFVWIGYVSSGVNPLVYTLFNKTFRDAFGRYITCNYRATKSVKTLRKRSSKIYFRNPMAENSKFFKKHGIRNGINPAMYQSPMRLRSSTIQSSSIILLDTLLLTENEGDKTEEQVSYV
Chain of Beta-1 adrenergic receptor (Homo sapiens) (P08588 whole entry, looked up): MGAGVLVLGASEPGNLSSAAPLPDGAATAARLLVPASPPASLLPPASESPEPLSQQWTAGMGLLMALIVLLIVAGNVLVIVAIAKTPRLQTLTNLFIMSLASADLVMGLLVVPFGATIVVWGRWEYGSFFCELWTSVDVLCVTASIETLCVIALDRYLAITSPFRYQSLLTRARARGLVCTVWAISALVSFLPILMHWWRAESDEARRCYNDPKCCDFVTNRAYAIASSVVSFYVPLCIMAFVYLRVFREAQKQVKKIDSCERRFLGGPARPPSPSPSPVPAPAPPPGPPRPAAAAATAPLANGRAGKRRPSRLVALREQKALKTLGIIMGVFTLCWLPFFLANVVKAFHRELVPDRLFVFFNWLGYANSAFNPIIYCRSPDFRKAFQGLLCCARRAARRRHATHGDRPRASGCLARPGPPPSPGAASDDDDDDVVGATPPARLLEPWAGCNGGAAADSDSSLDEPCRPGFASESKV
Chain of Somatostatin receptor type 4 (Homo sapiens) (P31391 whole entry): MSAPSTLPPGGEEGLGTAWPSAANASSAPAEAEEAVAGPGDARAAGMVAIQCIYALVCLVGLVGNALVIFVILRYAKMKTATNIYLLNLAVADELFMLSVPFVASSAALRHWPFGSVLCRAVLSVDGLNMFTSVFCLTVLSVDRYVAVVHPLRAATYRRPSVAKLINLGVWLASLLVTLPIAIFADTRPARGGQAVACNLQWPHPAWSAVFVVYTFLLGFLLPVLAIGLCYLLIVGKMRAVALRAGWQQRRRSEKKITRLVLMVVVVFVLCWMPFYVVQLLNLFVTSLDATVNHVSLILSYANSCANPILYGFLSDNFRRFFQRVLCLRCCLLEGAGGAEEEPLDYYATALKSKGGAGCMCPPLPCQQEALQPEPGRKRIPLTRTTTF
Chain of Mu-type opioid receptor (Homo sapiens) (P35372 whole entry): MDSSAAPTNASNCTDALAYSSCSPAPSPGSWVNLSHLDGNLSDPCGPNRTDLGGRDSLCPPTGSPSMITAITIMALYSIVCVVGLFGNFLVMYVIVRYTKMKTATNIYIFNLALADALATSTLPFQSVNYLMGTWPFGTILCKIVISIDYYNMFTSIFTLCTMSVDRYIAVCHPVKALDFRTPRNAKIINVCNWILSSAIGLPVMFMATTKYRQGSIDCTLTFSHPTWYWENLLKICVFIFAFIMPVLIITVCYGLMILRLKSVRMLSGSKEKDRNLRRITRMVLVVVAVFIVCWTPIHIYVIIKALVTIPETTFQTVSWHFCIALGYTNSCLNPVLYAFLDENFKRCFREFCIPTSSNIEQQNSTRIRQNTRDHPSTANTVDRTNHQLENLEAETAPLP

Row | Activity [1] [%] | Activity [2] [%] | Activity [3] [%] | fraction unbound [4] | Activity [5] [%] | Activity [6] [%] | IC50 (Cytochrome P450 1A2) [µM] | Activity [8] [%] | Activity [9] [%] | Papp B→A at 2 h, 2 µM [10] [×10⁻⁶ cm/s] | AUC/dose [11] [kg·h/L] | Fh at 1 µM [12] [%] | Activity [13] [%] | Activity [14] [%] | Activity [15] [%] | Activity [16] [%] | concentration at 192 h [18] [µM] | Compound | Activity [7] | Ratio IC50 (Homo sapiens) | Activity [17] | other results
1 | < 70 | < 70 | < 70 | 0.002 | < 70 | < 70 | > 20 | < 70 | < 70 | 2 | 7.8 | 85 | < 70 | < 70 | < 70 | < 70 | 7 | O=C(Nc1ccc(Oc2ccc(F)cc2)cc1)N1CCc2ncccc2[C@@H]1c1ccc(Cl)cc1 | Non-Toxic | 24 | Non-Toxic | Activity [19]: < 70%; IC50 (Cytochrome P450 2D6): > 20 µM
2 | < 70 | < 70 | < 70 | 0.017 | < 70 | < 70 | > 20 | < 70 | < 70 | 9.5 | 2.7 | 89 | < 70 | < 70 | < 70 | < 70 | 34 | O=C(Nc1cnc(Oc2ccc(F)cc2)nc1)N1CCc2ncccc2[C@@H]1c1ccc(F)cc1 [BAY-899] | Non-Toxic | > 100 | Non-Toxic | Activity [19]: < 70%; IC50 (Cytochrome P450 2D6): > 20 µM
